What is called inhibition is the relative decrease from the control value, in per cent.

SMILES strings stand for the structures.

From patent US20090118332A1, “Therapeutic Agents - 551” (AstraZeneca AB, priority 2006, published 2009) come the findings set out here.

For this assay, the target named is T1, human Fatty Acid Synthase (Homo sapiens, UniProt P49327).
T1 construct: made in house
Put plainly: Human FAS enzyme assay (decrease in NADPH fluorescence). Format: biochemical. The note with it: for inhibition at 100 µM: % inhibition at a concentration of 100 μmolar; for IC50, inhibition of human Fatty Acid Synthase: FAS enzyme assay, IC50 from fitted sigmoid curves. In a few lines: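 In-house human FAS was preincubated with compound and NADPH for 15 min at room temperature in 0.1 M Tris pH 7.5 with EDTA, glutathione and BSA. Malonyl CoA and acetyl CoA (500 μM and 150 μM in the added mix) were then added for 60 min. IC50 came from time-zero-subtracted NADPH fluorescence (340/460 nm).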

T1 sequence (P49327 whole entry): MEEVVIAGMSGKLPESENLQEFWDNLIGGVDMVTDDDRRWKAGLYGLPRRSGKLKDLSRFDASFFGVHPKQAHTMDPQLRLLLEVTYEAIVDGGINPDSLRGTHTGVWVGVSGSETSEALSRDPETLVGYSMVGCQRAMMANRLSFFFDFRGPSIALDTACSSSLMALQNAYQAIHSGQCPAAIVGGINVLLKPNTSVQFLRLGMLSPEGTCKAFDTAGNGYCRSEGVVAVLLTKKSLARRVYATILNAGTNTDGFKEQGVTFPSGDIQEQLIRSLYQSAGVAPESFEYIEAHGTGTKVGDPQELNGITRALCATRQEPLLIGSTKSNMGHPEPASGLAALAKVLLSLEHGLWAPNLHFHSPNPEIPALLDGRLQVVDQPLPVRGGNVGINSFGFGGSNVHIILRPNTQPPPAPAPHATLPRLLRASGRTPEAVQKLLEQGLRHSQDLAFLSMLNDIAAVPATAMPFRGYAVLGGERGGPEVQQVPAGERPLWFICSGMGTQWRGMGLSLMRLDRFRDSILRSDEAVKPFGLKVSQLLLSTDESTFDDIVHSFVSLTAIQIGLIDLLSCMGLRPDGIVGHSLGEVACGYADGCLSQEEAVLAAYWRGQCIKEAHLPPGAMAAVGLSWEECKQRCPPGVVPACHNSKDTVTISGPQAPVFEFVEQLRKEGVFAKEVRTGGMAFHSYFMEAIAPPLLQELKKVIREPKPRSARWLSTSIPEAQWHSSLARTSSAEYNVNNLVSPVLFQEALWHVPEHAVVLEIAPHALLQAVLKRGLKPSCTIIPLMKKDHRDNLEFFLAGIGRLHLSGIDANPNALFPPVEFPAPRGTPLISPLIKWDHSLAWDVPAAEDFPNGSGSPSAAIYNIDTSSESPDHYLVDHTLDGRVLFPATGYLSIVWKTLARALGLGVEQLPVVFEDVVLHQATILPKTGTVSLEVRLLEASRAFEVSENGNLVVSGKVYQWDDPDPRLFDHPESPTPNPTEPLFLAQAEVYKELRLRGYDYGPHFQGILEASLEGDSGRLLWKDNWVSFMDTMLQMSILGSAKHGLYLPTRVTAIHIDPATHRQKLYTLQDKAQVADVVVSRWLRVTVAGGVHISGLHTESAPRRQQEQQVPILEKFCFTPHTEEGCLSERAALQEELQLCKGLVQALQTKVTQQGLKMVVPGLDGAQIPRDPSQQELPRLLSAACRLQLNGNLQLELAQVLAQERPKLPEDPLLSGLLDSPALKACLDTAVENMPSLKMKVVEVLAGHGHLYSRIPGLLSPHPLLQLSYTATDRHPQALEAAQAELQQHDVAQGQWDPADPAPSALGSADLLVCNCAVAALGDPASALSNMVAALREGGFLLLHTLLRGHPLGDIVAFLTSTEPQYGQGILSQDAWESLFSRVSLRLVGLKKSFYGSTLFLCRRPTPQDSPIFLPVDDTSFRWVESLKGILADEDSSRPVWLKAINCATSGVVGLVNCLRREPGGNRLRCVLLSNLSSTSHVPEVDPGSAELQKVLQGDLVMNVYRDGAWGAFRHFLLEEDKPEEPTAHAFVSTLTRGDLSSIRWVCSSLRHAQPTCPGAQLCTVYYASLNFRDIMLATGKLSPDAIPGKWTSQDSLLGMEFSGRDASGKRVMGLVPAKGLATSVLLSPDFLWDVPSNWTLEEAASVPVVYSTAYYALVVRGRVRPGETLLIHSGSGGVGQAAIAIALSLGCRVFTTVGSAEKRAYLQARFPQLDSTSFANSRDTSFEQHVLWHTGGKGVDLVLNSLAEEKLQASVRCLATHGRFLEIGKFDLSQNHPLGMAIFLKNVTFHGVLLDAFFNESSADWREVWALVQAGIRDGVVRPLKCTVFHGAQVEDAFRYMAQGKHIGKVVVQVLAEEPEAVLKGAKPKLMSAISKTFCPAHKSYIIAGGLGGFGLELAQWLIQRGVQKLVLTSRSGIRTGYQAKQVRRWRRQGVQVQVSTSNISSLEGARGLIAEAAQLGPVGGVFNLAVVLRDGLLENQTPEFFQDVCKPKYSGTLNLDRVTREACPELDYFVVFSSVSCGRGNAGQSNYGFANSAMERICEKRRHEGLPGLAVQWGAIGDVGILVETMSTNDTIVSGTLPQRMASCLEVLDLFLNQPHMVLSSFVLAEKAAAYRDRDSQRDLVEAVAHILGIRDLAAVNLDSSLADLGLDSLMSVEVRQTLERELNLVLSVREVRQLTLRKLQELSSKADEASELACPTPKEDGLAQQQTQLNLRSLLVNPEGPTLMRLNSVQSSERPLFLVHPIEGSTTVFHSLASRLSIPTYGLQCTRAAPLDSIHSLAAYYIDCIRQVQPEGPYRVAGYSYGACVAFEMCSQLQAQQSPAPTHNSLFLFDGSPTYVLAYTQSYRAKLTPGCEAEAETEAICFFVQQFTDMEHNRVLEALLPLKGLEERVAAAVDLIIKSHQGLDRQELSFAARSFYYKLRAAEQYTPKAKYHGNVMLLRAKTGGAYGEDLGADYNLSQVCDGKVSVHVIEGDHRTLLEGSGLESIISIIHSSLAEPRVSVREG

In the case of `CC(C)NC(=O)Nc1cccc(C(=O)N2CCC(c3ccc(C#N)cc3)CC2)c1` [Example 46, 3-[3-[4-(4-cyanophenyl)piperidine-1-carbonyl]phenyl]-1-propan-2-yl-urea], the inhibition at 100 µM was found to be 90.3%.
For the molecule `Cc1cc(C)c(C(=O)N2CCC(c3ccc(C#N)cc3)CC2)cc1NC(=O)NCc1ccccn1` [Example 409, 1-[5-[4-(4-cyanophenyl)piperidine-1-carbonyl]-2,4-dimethylphenyl]-3-(pyridin-2-ylmethyl)urea], the inhibition at 100 µM came to 96.9%.
As for `CCC(=O)NCCN(C)C(=O)Nc1cc(C(=O)N2CCC(c3ccc(C#N)cc3)CC2)ccc1C` [Example 353, N-[2-[[5-[4-(4-cyanophenyl)piperidine-1-carbonyl]-2-methyl-phenyl]carbamoyl-methyl-amino]ethyl]propanamide], the inhibition at 100 µM came out at 78.4%.
Same read-out and setting: for `Cc1ccc(C(=O)N2CCC(c3ccc(C#N)cc3)CC2)cc1NC(=O)NCCc1cccc(F)c1` [Example 68, 1-[5-[4-(4-cyanophenyl)piperidine-1-carbonyl]-2-methyl-phenyl]-3-[2-(3-fluorophenyl)ethyl]urea] the value was 102%; for `Cc1ccc(C(=O)N2CCC(c3ccc(C#N)cc3)CC2)cc1NC(=O)N[C@@H](C)c1ccccc1` [Example 105, 1-[5-[4-(4-cyanophenyl)piperidine-1-carbonyl]-2-methyl-phenyl]-3-[(1S)-1-phenylethyl]urea], 92.7%; for `CCS(=O)(=O)N[C@@H]1CCCC[C@@H]1NC(=O)Nc1cc(C(=O)N2CCC(c3ccc(C#N)cc3)CC2)ccc1C` (relative stereo) [Example 309, 3-[5-[4-(4-cyanophenyl)piperidine-1-carbonyl]-2-methyl-phenyl]-1-[(cis)-2-(ethylsulfonylamino)cyclohexyl]urea], 96.7%.
The same measure, in the same setting: under `COCc1ccc(C(=O)N2CCC(c3ccc(C#N)cc3)CC2)cc1NC(=O)NC(C)C` [Example 365, 3-[5-[4-(4-cyanophenyl)piperidine-1-carbonyl]-2-(methoxymethyl)phenyl]-1-propan-2-ylurea] stands 82.5%; under `Cc1ccc(C(=O)N2CCC(c3ccc(C#N)cc3)CC2)cc1NC(=O)NC(Cc1ccc(F)cc1)C(=O)O` (centres unmarked) [Example 369, 2-[[5-[4-(4-cyanophenyl)piperidine-1-carbonyl]-2-methylphenyl]carbamoylamino]-3-(4-fluorophenyl)propanoic acid], 88.5%; under `Cc1ccc(C(=O)N2CCC(c3ccc(C#N)cc3)CC2)cc1NC(=O)N[C@H]1CC[C@H](NS(C)(=O)=O)C1` [Example 320, 1-[5-[4-(4-cyanophenyl)piperidine-1-carbonyl]-2-methyl-phenyl]-3-[(1S,3S)-3-methanesulfonamidocyclopentyl]urea], 94.4%.
Same read-out and setting: under `CNC(=O)Nc1cc(C(=O)N2CCC(c3ccc(C#N)cc3)CC2)ccc1C` [Example 361, 1-[5-[4-(4-cyanophenyl)piperidine-1-carbonyl]-2-methyl-phenyl]-3-methyl-urea] stands 101%; under `Cc1ccc(C(=O)N2CCC(c3ccc(C#N)cc3)CC2)cc1NC(=O)NCCNC(=O)C(C)C` [Example 112, N-[2-[[5-[4-(4-cyanophenyl)piperidine-1-carbonyl]-2-methyl-phenyl]carbamoylamino]ethyl]-2-methyl-propanamide], 94.3%.
Turning to `COc1ccccc1C1CCN(C(=O)c2ccc(C)c(NC(=O)NC(C)C)c2)CC1` [1-[5-[4-(2-methoxyphenyl)piperidine-1-carbonyl]-2-methylphenyl]-3-propan-2-ylurea], the “IC50, inhibition of human Fatty Acid Synthase” value is reported as “do not have IC50s in the range of about 0.001 μM to about 30 μM”.
On to `CC(=O)NCCNC(=O)Nc1cc(C(=O)N2CCC(c3ccc(F)cc3)CC2)ccc1C` [Example 338, N-[2-[[5-[4-(4-fluorophenyl)piperidine-1-carbonyl]-2-methyl-phenyl]carbamoylamino]ethyl]acetamide], for which the inhibition at 100 µM is 81.3%.
With `Cc1ccc(C(=O)N2CCC(c3ccc(C#N)cc3)CC2)cc1NC(=O)NCCCN(C)C` [Example 138, 1-[5-[4-(4-cyanophenyl)piperidine-1-carbonyl]-2-methyl-phenyl]-3-(3-dimethylaminopropyl)urea], the inhibition at 100 µM was 83.7%.
Turning to `Cc1ccc(C(=O)N2CCC(c3ccc(C#N)cc3)CC2)cc1NC(=O)N1CCC(S(C)(=O)=O)C1` (centres unmarked) [Example 344, N-[5-[4-(4-cyanophenyl)piperidine-1-carbonyl]-2-methyl-phenyl]-3-methylsulfonyl-pyrrolidine-1-carboxamide], the inhibition at 100 µM was 112%.
On to `Cc1ccc(C(=O)N2CCC(c3ccc(C#N)cc3)CC2)cc1NC(=O)NCCC1CCCN1C` (centres unmarked) [Example 144, 1-[5-[4-(4-cyanophenyl)piperidine-1-carbonyl]-2-methyl-phenyl]-3-[2-(1-methylpyrrolidin-2-yl)ethyl]urea], for which the inhibition at 100 µM amounted to 81.7%.
Still for that read-out and setting: under `CC(=O)NCCN(C)C(=O)Nc1cc(C(=O)N2CCC(c3ccc(C#N)cc3)CC2)ccc1C` [Example 401, N-[2-[[5-[4-(4-cyanophenyl)piperidine-1-carbonyl]-2-methylphenyl]carbamoyl-methylamino]ethyl]acetamide] stands 65.7%; under `Cc1ccc(C(=O)N2CCC(c3ccc(C#N)cc3)CC2)cc1NC(=O)NCc1ccccc1` [Example 32, 3-benzyl-1-[5-[4-(4-cyanophenyl)piperidine-1-carbonyl]-2-methyl-phenyl]urea], 95.5%; under `Cc1ccc(C(=O)N2CCC(c3ccc(C#N)cc3)CC2)cc1NC(=O)NCC(C)(C)NC(=O)C(C)C` [Example 263, N-[1-[[5-[4-(4-cyanophenyl)piperidine-1-carbonyl]-2-methyl-phenyl]carbamoylamino]-2-methyl-propan-2-yl]-2-methyl-propanamide], 79%.
Same read-out and setting: under `CCS(=O)(=O)N1CC[C@@H](NC(=O)Nc2cc(C(=O)N3CCC(c4ccc(C#N)cc4)CC3)ccc2C)C1` [Example 219, 3-[5-[4-(4-cyanophenyl)piperidine-1-carbonyl]-2-methyl-phenyl]-1-[(3R)-1-ethylsulfonylpyrrolidin-3-yl]urea] stands 88.8%.
Consider `COc1ccc(NC(=O)NC(C)C)cc1C(=O)N1CCC(c2ccc(C#N)cc2)CC1` [3-[3-[4-(4-cyanophenyl)piperidine-1-carbonyl]-4-methoxyphenyl]-1-propan-2-ylurea], for which the “IC50, inhibition of human Fatty Acid Synthase” value is on record as “do not have IC50s in the range of about 0.001 μM to about 30 μM”.
For `COc1ccc(C(=O)N2CCC(c3ccc(C#N)cc3)CC2)cc1NC(=O)NCc1ccccc1` [Example 9, 3-benzyl-1-[5-[4-(4-cyanophenyl)piperidine-1-carbonyl]-2-methoxy-phenyl]urea], the inhibition at 100 µM was 70.4%.
Same read-out and setting: for `CCS(=O)(=O)NCCN(C)C(=O)Nc1cc(C(=O)N2CCC(c3ccc(C#N)cc3)CC2)ccc1C` [Example 402, 3-[5-[4-(4-cyanophenyl)piperidine-1-carbonyl]-2-methylphenyl]-1-[2-(ethylsulfonylamino)ethyl]-1-methylurea] the value was 64.6%; for `CC(=O)NCC(C)NC(=O)Nc1cc(C(=O)N2CCC(c3ccc(C#N)cc3)CC2)ccc1C` (centres unmarked) [Example 232, N-[2-[[5-[4-(4-cyanophenyl)piperidine-1-carbonyl]-2-methyl-phenyl]carbamoylamino]propyl]acetamide], 94.2%; for `Cc1ccc(C(=O)N2CCC(c3ccc(C#N)cc3)CC2)cc1NC(=O)NCCC(=O)N(C)C` [Example 130, 3-[[5-[4-(4-cyanophenyl)piperidine-1-carbonyl]-2-methyl-phenyl]carbamoylamino]-N,N-dimethyl-propanamide], 90.5%.
Same read-out and setting: for `Cc1ccc(C(=O)N2CCC(c3ccc(C#N)cc3)CC2)cc1NC(=O)NC1CCCNC1=O` (racemic) [Example 236, (RS)-1-[5-[4-(4-cyanophenyl)piperidine-1-carbonyl]-2-methyl-phenyl]-3-(2-oxo-3-piperidyl)urea] the value was 77.1%; for `Cc1ccc(C(=O)N2CCC(c3ccc(C#N)cc3)CC2)cc1NC(=O)NCCNC(=O)C(=O)O` [Example 104, 2-[[5-[4-(4-cyanophenyl)piperidine-1-carbonyl]-2-methyl-phenyl]carbamoylamino]ethylcarbamoylformic acid], 74.5%; for `Cc1ccc(C(=O)N2CCC(c3ccc(C#N)cc3)CC2)cc1NC(=O)NCCC(=O)O` [Example 125, 3-[[5-[4-(4-cyanophenyl)piperidine-1-carbonyl]-2-methyl-phenyl]carbamoylamino]propanoic acid], 91.7%.
As to `Cc1ccc(C(=O)N2CCC(c3ccc(C#N)cc3)CC2)cc1NC(=O)NC1CCN(C(=O)C(C)C)CC1` [Example 283, 1-[5-[4-(4-cyanophenyl)piperidine-1-carbonyl]-2-methyl-phenyl]-3-[1-(2-methylpropanoyl)-4-piperidyl]urea], the inhibition at 100 µM was found to be 101%.
Regarding `Cc1ccc(C(=O)N2CCC(c3ccc(C#N)cc3)CC2)cc1NC(=O)NCc1cc[nH]n1` [Example 289, 1-[5-[4-(4-cyanophenyl)piperidine-1-carbonyl]-2-methyl-phenyl]-3-(1H-pyrazol-3-ylmethyl)urea], the inhibition at 100 µM was determined as 91.2%.
The same measure, in the same setting: under `Cc1ccc(C(=O)N2CCC(c3ccc(C#N)cc3)CC2)cc1NC(=O)NCc1ncco1` [Example 269, 1-[5-[4-(4-cyanophenyl)piperidine-1-carbonyl]-2-methyl-phenyl]-3-(1,3-oxazol-2-ylmethyl)urea] stands 89.9%.
Same read-out and setting: under `Cc1ccc(NC(=O)NC2CC2)cc1C(=O)N1CCC(c2ccc(C#N)cc2)CC1` [Example 415, 1-[3-[4-(4-cyanophenyl)piperidine-1-carbonyl]-4-methylphenyl]-3-cyclopropylurea] stands 78.2%.
